Laboratory results reported in patent publication US20240300980A1, “HETEROCYCLIC COMPOUNDS AS KRAS INHIBITOR, AND PREPARATION THEREFOR AND USE THEREOF IN TREATMENT” (SHANGHAI KECHOW PHARMA, INC., priority 2021, published 2024).
Read-outs that look alike come from different tables or passages of the source.

Test system: AGS cells (KRAS^G12D)
Experiment: Detection of cell proliferation in vitro by MTT/MTS method (cell activity experiment)
Type: cell-based
Settings: AGS cells, MTT/MTS, 3 days of drug treatment, read-out: AGS IC50
Procedure: The above cells were cultured in a complete medium containing 10% fetal bovine serum, 100 IU/mL penicillin and 100 jag/mL streptomycin, in the aseptic incubator with 95% relative humidity and 5% CO2 concentration.
2. Reagents: F12K, D-PBS, FBS, Penicillin Streptomycin, Tryple, MTT (5 mg/mL)
Appropriate amount of compound powder was weighed in a 1.5 mL centrifuge tube, then the corresponding volume of dimethyl sulfoxide (DMSO) was added to form a 20 mM reserve solution. The solution was packed separately and stored in a refrigerator at −20° C. away from light.
The cells were inoculated in a cell culture bottle, added an appropriate amount of complete medium, and cultured in a sterile incubator. When the degree of cell confluence reached more than 80%, subculture was carried out.
The adherent cells in logarithmic growth phase were digested by trypsin or the suspension cells were collected by centrifugation and counted. 90 μL cell suspension was inoculated into 96-well plate according to the cell inoculation density of 1000 cells per well, and 10 μL of 10-fold final concentration compound diluted by culture medium was added 24 hours later. Compared with the hole with the same volume of 5% DMSO as control, the final concentration of DMSO was 0.5%. After 3 days of drug treatment, the cell viability was detected by MTT. The specific methods are as follows: 10 μL MTT per well was added into the incubator for 4 hours, the supernatant was discarded and 150 μL DMSO was added to dissolve the crystal methylazan, and the absorbance of 490 nm was detected by enzyme labeling instrument, or 10 μL MITS per well was added to the incubator for 4 hours, and […] absorbance was detected directly by enzyme labeling instrument. GraphPad Prism 6 software makes dose-effect curve and calculates IC50.

| SMILES | IC50 (Homo sapiens, AGS, 72 h) | IC50 |
| --- | --- | --- |
| Oc1cc(-c2c(Cl)cc3c(N4C[C@H]5CC[C@@H](C4)N5)nc(OC[C@@]45CCCN4C[C@H](F)C5)nc3c2OC2CC2)c2ccccc2c1 [Example 329, 4-(4-((1R,5S)-3,8-diazabicyclo[3.2.1]octan-3-yl)-6-chloro-8-cyclopropoxy-2-(((2R,7aS)-2-fluorotetrahydro-1H-pyrrolizin-7a(5H)-yl)methoxy)quinazolin-7-yl)naphthalen-2-ol] | 260 nM |  |
| CCC1CCCc2cc(O)cc(-c3c4c(c5c(N6C[C@H]7CC[C@@H](C6)N7)nc(OC[C@@]67CCCN6C[C@H](F)C7)nc5c3F)CCC4)c21 (stereo partly drawn) [Example 383, 4-(1-((1R,5S)-3,8-diazabicyclo[3.2.1]octan-3-yl)-5-fluoro-3-(((2R,7aS)-2-fluorotetrahydro-1H-pyrrolizin-7a(5H)-yl)methoxy)-8,9-dihydro-7H-cyclopenta[f]quinazolin-6-yl)-5-ethyl-5,6,7,8-tetrahydronaphthalen-2-ol] | 50 nM |  |
| C#Cc1c(F)ccc2cc(O)cc(-c3ncc4c(N5CC(C#N)C5)nc(OC[C@@]56CCCN5C[C@H](F)C6)nc4c3F)c12 [Example 69, 1-(7-(8-ethynyl-7-fluoro-3-hydroxynaphthalen-1-yl)-8-fluoro-2-(((2R, 7aS)-2-fluorotetrahydro-1H-pyrrolizin-7a(5H)-yl)methoxy)pyrido[4,3-d]pyrimidin-4-yl) azetidine-3-carbonitrile] | 411 nM |  |
| CCc1c(F)ccc2cc(O)cc(N3CCc4c(nc(OC[C@@]56CCCN5C[C@H](F)C6)nc4N4C[C@H]5CC[C@@H](C4)N5)C3)c12 [Example 203, 4-(4-((1R,5S)-3,8-diazabicyclo[3.2.1]octan-3-yl)-2-(((2R,7aS)-2-fluorotetrahydro-1H-pyrrolizin-7a(5H)-yl)methoxy)-5,8-dihydropyrido[3,4-d]pyrimidin-7(6H)-yl)-5-ethyl-6-fluoronaphthalen-2-ol] | 17 nM |  |
| Oc1cc(C2=C(F)c3nc(OC[C@@]45CCCN4C[C@H](F)C5)nc(N4C[C@H]5CC[C@@H](C4)N5)c3C3=NCCN32)c2ccccc2c1 [Example 401, 4-(10-((1R,5S)-3,8-diazabicyclo[3.2.1]octan-3-yl)-6-fluoro-8-(((2R,7aS)-2-fluorotetrahydro-1H-pyrrolizin-7a(5H)-yl)methoxy)-2,3-dihydroimidazo[1′,2′:1,2]pyrido[4,3-d]pyrimidin-5-yl)naphthalen-2-ol] | 100 nM |  |
| CCc1c(F)ccc2cc(O)cc(-c3ccc4c(N5C[C@H]6CC[C@@H](C5)S6(=O)=O)nc(OC[C@@]56CCCN5C[C@H](F)C6)nc4c3F)c12 [Example 163, (1R,5S)-3-(7-(8-ethyl-7-fluoro-3-hydroxynaphthalen-1-yl)-8-fluoro-2-(((2R,7aS)-2-fluorotetrahydro-1H-pyrrolizin-7a(5H)-yl)methoxy)quinazolin-4-yl)-8-thia-3-azabicyclo[3.2.1]octane 8,8-dioxide] | > 2500 nM |  |
| C#Cc1c(F)ccc2cccc(-c3ccc4c(N5C[C@H]6CC[C@@H](C5)N6)nc(OC[C@]56CCCN5[C@@H](COC(=O)N(C)C)CC6)nc4c3F)c12 [Example 98, ((3R,7aR)-7a-(((4-((1R,5S)-3,8-diazabicyclo[3.2.1]octan-3-yl)-7-(8-ethynyl-7-fluoronaphthalen-1-yl)-8-fluoroquinazolin-2-yl)oxy)methyl)hexahydro-1H-pyrrolizin-3-yl) methyl dimethylcarbamate] | 129 nM |  |
| N#Cc1c(OC[C@@]23CCCN2C[C@H](F)C3)nc2c(F)c(-c3cc(O)cc4ccc(F)c(F)c34)ccc2c1N1C[C@H]2CC[C@@H](C1)N2 [Example 179, 4-((1R,5S)-3,8-diazabicyclo[3.2.1]octan-3-yl)-7-(7,8-difluoro-3-hydroxynaphthalen-1-yl)-8-fluoro-2-(((2R,7aS)-2-fluorotetrahydro-1H-pyrrolizin-7a(5H)-yl)methoxy)quinoline-3-carbonitrile] | 550 nM |  |
| CC1CCCc2cc(O)cc(-c3ccc4c(N5C[C@H]6CC[C@@H](C5)N6)nc(OC[C@@]56CCCN5C[C@H](F)C6)nc4c3F)c21 (single isomer, unassigned) [Example 287] |  | 2140 nM |
| C#Cc1c(F)ccc2cc(O)cc(-c3ncc4c(N5C[C@H]6CC[C@@H](C5)N6)nc(OC[C@@]56CCCN5C[C@H](F)C6)nc4c3OC3CC3)c12 [Example 334, 4-(4-((1R,5S)-3,8-diazabicyclo[3.2.1]octan-3-yl)-8-cyclopropoxy-2-(((2R,7aS)-2-fluorotetrahydro-1H-pyrrolizin-7a(5H)-yl)methoxy)pyrido[4,3-d]pyrimidin-7-yl)-5-ethynyl-6-fluoronaphthalen-2-ol] | 125 nM |  |
| CSc1c(F)ccc2cc(O)cc(-c3ccc4c(N5C[C@H]6CC[C@@H](C5)N6)nc(OC[C@@]56CCCN5C[C@H](F)C6)nc4c3F)c12 [Example 336, 4-(4-((1R,5S)-3,8-diazabicyclo[3.2.1]octan-3-yl)-8-fluoro-2-(((2R,7aS)-2-fluorotetrahvdro-1H-pyrrolizin-7a(5H)-yl)methoxy)quinazolin-7-yl)-6-fluoro-5-(methylthio)naphthalen-2-ol] |  | 9.9 nM |
| O=C(CO)N1CCC(c2nc(OC[C@@]34CCCN3C[C@H](F)C4)nc3c(F)c(-c4cc(O)cc5ccc(F)c(F)c45)ncc23)C1 (stereo partly drawn) [Example 85, 1-(3-(7-(7,8-difluoro-3-hydroxynaphthalen-1-yl)-8-fluoro-2-(((2R,7aS)-2-fluorotetrahydro-1H-pyrrolizin-7a(5H)-yl)methoxy)pyrido[4,3-d]pyrimidin-4-yl)pyrrolidin-1-yl)-2-hydroxyethan-1-one] | > 1000 nM |  |
| OCC1CCc2cc(O)cc(-c3ncc4c(N5C[C@H]6CC[C@@H](C5)N6)nc(OC[C@@]56CCCN5C[C@H](F)C6)nc4c3F)c21 (stereo partly drawn) [Example 265, 7-(4-((1R,5S)-3,8-diazabicyclo[3.2.1]octan-3-yl)-8-fluoro-2-(((2R,7aS)-2-fluorotetrahydro-1H-pyrrolizin-7a(5H)-yl)methoxy)pyrido[4,3-d]pyrimidin-7-yl)-1-(hydroxymethyl)-2,3-dihydro-1H-inden-5-ol] | > 10000 nM |  |
| [O-][S+]1C2CCC1CN(c1nc(OC[C@@]34CCCN3C[C@H](F)C4)nc3c(F)c(-c4cc(O)cc5cccc(F)c45)ccc13)C2 (stereo partly drawn) [Example 168, (1R,5S,8R)-3-(8-fluoro-7-(8-fluoro-3-hydroxynaphthalen-1-yl)-2-(((2R,7aS)-2-fluorotetrahydro-1H-pyrrolizin-7a(5H)-yl)methoxy)quinazolin-4-yl)-8-thia-3-azabicyclo[3.2.1]octane 8-oxide] | > 2500 nM |  |
| Oc1cc2c(c(-c3ccc4c(N5C[C@H]6CC[C@@H](C5)N6)nc(OC[C@@]56CCCN5C[C@H](F)C6)nc4c3F)c1)C1CC1CC2 (stereo partly drawn) [Example 295, 7-(4-((1R,5S)-3,8-diazabicyclo[3.2.1]octan-3-yl)-8-fluoro-2-(((2R,7aS)-2-fluorotetrahydro-1H-pyrrolizin-7a(5H)-yl)methoxy)quinazolin-7-yl)-1a,2,3,7b-tetrahydro-1H-cyclopropa[a]naphthalen-5-ol] | 183 nM |  |
| Oc1ccc2ccccc2c1C#Cc1ccc2c(N3C[C@H]4CC[C@@H](C3)N4)nc(OC[C@@]34CCCN3C[C@H](F)C4)nc2c1F [Example 365, 1-((4-((1R,5S)-3,8-diazabicyclo[3.2.1]octan-3-yl)-8-fluoro-2-(((2R,7aS)-2-fluorotetrahydro-1H-pyrrolizin-7a(5H)-yl)methoxy)quinazolin-7-yl)ethynyl)naphthalen-2-ol] | 3640 nM |  |
| CCc1ccc2cc(O)cc(C3=C(F)c4nc(OC[C@@]56CCCN5C[C@H](F)C6)nc(N5C[C@H]6CC[C@@H](C5)N6)c4C4=NCCN43)n12 [Example 412, 5-(10-((1R,5S)-3,8-diazabicyclo[3.2.1]octan-3-yl)-6-fluoro-8-(((2R,7aS)-2-fluorotetrahydro-1H-pyrrolizin-7a(5H)-yl)methoxy)-2,3-dihydroimidazo[1′,2′:1,2]pyrido[4,3-d]pyrimidin-5-yl)-3-ethylindolizin-7-ol] | 35 nM |  |
| C#Cc1c(F)ccc2cc(O)cc(-c3ncc4c(N5CC6CCC(C5)C6[S+](C)[O-])nc(OC[C@@]56CCCN5C[C@H](F)C6)nc4c3F)c12 (stereo partly drawn) [Example 65, 5-ethynyl-6-fluoro-4-(8-fluoro-2-(((2R,7aS)-2-fluorotetrahydro-1H-pyrrolizin-7a(5H)-yl)methoxy)-4-((1R,5S, 8R)-8-(methylsulfinyl)-3-azabicyclo[3.2.1]octan-3-yl)pyrido[4,3-d]pyrimidin-7-yl) naphthalen-2-ol] | > 10000 nM |  |
| Oc1cc(-c2ncc3c(N4C[C@H]5CC[C@@H](C4)N5)nc(OCC4(CN5CCCC5)CC4)nc3c2F)c2c(F)c(F)ccc2c1 [Example 5, 4-(4-((1R,5S)-3,8-diazabicyclo[3.2.1]octan-3-yl)-8-fluoro-2-((1-(pyrrolidin-1-ylmethyl)cyclopropyl)methoxy)pyrido[4,3-d]pyrimidin-7-yl)-5,6-difluoronaphthalen-2-ol] | 3.8 nM |  |
